Results taken from US10428080B2, “TBK/IKK inhibitor compounds and uses thereof” (Merck Patent GmbH, priority 2015, dated 2019).
Read-outs that look alike come from different tables or passages of the source.

Legend:
TBK1 = biological target: T1, TBK1 (Homo sapiens, UniProt Q9UHD2); assay: TBK Biochemical Assay; conditions: read-out: TBK1 IC50
T1 sequence (Q9UHD2 1-729): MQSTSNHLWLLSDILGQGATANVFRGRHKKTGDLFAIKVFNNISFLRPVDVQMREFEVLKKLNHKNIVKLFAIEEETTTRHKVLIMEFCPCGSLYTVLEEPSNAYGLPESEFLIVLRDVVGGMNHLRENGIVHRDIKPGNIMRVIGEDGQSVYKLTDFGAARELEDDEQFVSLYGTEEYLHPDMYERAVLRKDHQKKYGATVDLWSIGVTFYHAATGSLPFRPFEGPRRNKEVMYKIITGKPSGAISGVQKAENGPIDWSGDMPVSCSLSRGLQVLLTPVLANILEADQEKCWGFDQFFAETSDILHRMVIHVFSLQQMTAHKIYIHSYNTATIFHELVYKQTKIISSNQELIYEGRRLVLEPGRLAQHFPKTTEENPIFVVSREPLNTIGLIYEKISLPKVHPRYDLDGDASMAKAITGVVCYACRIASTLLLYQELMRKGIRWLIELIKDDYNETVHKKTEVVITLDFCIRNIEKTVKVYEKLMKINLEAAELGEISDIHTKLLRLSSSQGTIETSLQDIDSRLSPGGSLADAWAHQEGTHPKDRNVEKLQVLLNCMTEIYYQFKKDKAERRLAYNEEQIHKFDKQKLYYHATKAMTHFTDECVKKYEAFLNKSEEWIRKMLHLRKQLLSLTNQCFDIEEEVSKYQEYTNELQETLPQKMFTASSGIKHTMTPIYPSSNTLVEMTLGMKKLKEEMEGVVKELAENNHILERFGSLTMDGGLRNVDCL
Method in brief: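 TBK1 enzyme and substrate incubated with compounds (10-point 1:4 dilution, top 30 uM final, 1% DMSO) for 90 min at 25° C, then stopped. Substrate/product peaks read by microfluidic mobility-shift (Caliper LabChip); 10 uM staurosporine as full-inhibition control.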

IKKε = biological target: T2, IKKε (Homo sapiens, UniProt Q14164); assay: IKKe Biochemical Assay; conditions: read-out: IKKε IC50
T2 sequence (Q14164 1-716): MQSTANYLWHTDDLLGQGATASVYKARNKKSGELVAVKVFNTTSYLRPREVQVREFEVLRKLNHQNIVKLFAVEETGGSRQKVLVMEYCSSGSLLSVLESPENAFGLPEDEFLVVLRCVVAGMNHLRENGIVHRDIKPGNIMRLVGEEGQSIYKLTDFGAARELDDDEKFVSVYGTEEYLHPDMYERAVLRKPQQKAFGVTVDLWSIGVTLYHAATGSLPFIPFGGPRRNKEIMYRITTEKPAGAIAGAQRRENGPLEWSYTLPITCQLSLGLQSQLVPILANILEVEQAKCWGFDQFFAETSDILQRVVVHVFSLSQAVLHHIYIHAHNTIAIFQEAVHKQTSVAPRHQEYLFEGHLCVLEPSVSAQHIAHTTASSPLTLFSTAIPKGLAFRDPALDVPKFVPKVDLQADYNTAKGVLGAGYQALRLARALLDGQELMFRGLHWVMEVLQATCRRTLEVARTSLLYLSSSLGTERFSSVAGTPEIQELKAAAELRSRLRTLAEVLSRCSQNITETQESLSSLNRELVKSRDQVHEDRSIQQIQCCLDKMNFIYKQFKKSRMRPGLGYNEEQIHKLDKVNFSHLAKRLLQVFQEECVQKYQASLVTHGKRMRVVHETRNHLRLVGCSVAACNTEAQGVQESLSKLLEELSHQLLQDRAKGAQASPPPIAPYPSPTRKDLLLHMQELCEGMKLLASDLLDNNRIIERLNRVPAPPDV
Method in brief: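 Recombinant IKKε and substrate were incubated with compound (10-point 1:4 series, top 30 uM final, 1% DMSO) for 90 min at 25° C, then stopped. Substrate-to-product conversion was read by LabChip microfluidic mobility shift; 10 uM staurosporine served as full-inhibition wells.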

[1] = system: phosphorylation of the IRF-3 protein in MDA-MB-468 cells; assay: pIRF3 immunocytochemistry cell based assay
Method in brief: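 MDA-MB-468 cells got compounds (10-point, 3-fold from 10 uM) for 1 h at 37 °C, then 10 ug/ml Poly(I:C) for 2 h. Fixed, permeabilized cells were immunostained for pIRF3 with AlexaFluor488 and counterstained with PI. % phosphorylation was read by laser scanning cytometry, and IC50 curves were fitted.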

[2] = Homo sapiens, MDA-MB-468 cells, Poly(I:C) stimulation, read-out: pIRF3 IC50

COc1cc(C(=O)NC2C3COCC32)cnc1-c1cc2nccc(-c3ccc(N4CC[C@@H](F)C4)c(C#N)c3)c2o1 (stereo partly drawn) [Compound 466, 6-{7-[3-Cyano-4-((R)-3-fluoro-pyrrolidin-1-yl)-phenyl]-furo[3,2-b]pyridin-2-yl}-5-methoxy-N-(3-oxa-bicyclo[3.1.0]hex-6-yl)-nicotinamide]
IC50 (TBK1): < 100 nM | IC50 (IKKε): < 100 nM | IC50 [1, 2]: 100 to 1000 nM

COc1cc(C(=O)NC2C3COCC32)cnc1-c1cc2nccc(-c3ccc(N4CC[C@H](F)C4)c(C#N)c3)c2o1 (stereo partly drawn) [Compound 467, 6-{7-[3-Cyano-4-((S)-3-fluoro-pyrrolidin-1-yl)-phenyl]-furo[3,2-b]pyridin-2-yl}-5-methoxy-N-(3-oxa-bicyclo[3.1.0]hex-6-yl)-nicotinamide]
IC50 (TBK1): < 100 nM | IC50 (IKKε): < 100 nM | IC50 ([1]; MDA-MB-468 cells, Poly(I:C) stimulation, read-out: pIRF3 IC50): 100 to 1000 nM

COc1cc(-c2cc3nccc(-c4ccc(OC5CCOCC5)c(C#N)c4)c3o2)ccc1C(=O)N(C)C [Compound 470, 4-[7-[3-cyano-4-(oxan-4-yloxy)phenyl]furo[3,2-b]pyridin-2-yl]-2-methoxy-N,N-dimethylbenzamide]
IC50 (TBK1): < 100 nM | IC50 (IKKε): < 100 nM | IC50 ([1]; Homo sapiens, MDA-MB-468, read-out: pIRF3 IC50): 100 to 1000 nM

COc1cc(C(=O)N(C)C)ccc1-c1cc2nccc(-c3ccc(NC4CC(C)(C)OC(C)(C)C4)c(C#N)c3)c2o1 [Compound 471, 4-(7-[3-cyano-4-[(2,2,6,6-tetramethyloxan-4-yl)amino]phenyl]furo[3,2-b]pyridin-2-yl)-3-methoxy-N,N-dimethylbenzamide]
IC50 (TBK1): 100 to 1000 nM | IC50 (IKKε): 100 to 1000 nM | IC50 [1, 2]: 1000 to 5000 nM

COc1cc(C(=O)N(C)C2CN3CCC2CC3)ccc1-c1cc2nccc(-c3ccc(OC4CCOCC4)c(C#N)c3)c2o1 (stereo not drawn) [Compound 472, N-(1-Aza-bicyclo[2.2.2]oct-3-yl)-4-{7-[3-cyano-4-(tetrahydro-pyran-4-yloxy)-phenyl]-furo[3,2-b]pyridin-2-yl}-3-methoxy-N-methyl-benzamide]
IC50 (TBK1): < 100 nM | IC50 (IKKε): < 100 nM | IC50 [1, 2]: < 100 nM

COc1cc(C(=O)N(C)CCN2CCCC2)ccc1-c1cc2nccc(-c3ccc(OC4CCOCC4)c(C#N)c3)c2o1 [Compound 473, 4-{7-[3-Cyano-4-(tetrahydro-pyran-4-yloxy)-phenyl]-furo[3,2-b]pyridin-2-yl}-3-methoxy-N-methyl-N-(2-pyrrolidin-1-yl-ethyl)-benzamide]
IC50 (TBK1): < 100 nM | IC50 (IKKε): < 100 nM | IC50 [1, 2]: < 100 nM

COc1cc(C(=O)N2CC3C2CCN3C)ccc1-c1cc2nccc(-c3ccc(OC4CCOCC4)c(C#N)c3)c2o1 (stereo not drawn) [Compound 474, 5-{2-[2-Methoxy-4-(2-methyl-2,6-diaza-bicyclo[3.2.0]heptane-6-carbonyl)-phenyl]-furo[3,2-b]pyridin-7-yl}-2-(tetrahydro-pyran-4-yloxy)-benzonitrile]
IC50 (TBK1): < 100 nM | IC50 (IKKε): < 100 nM | IC50 [1, 2]: < 100 nM

COc1cc(C(=O)NC2(CO)CCCC2)ccc1-c1cc2nccc(-c3ccc(OC4CCOCC4)c(C#N)c3)c2o1 [Compound 475, 4-{7-[3-Cyano-4-(tetrahydro-pyran-4-yloxy)-phenyl]-furo[3,2-b]pyridin-2-yl}-N-(1-hydroxymethyl-cyclopentyl)-3-methoxy-benzamide]
IC50 (TBK1): < 100 nM | IC50 (IKKε): < 100 nM | IC50 [1, 2]: 100 to 1000 nM

COc1cc(C(=O)N[C@H]2CCCC[C@H]2O)ccc1-c1cc2nccc(-c3ccc(OC4CCOCC4)c(C#N)c3)c2o1 [Compound 476, 4-{7-[3-Cyano-4-(tetrahydro-pyran-4-yloxy)-phenyl]-furo[3,2-b]pyridin-2-yl}-N-((1S,2R)-2-hydroxy-cyclohexyl)-3-methoxy-benzamide]
IC50 (TBK1): < 100 nM | IC50 (IKKε): < 100 nM | IC50 [1, 2]: 100 to 1000 nM

COc1cc(C(=O)NCCN2CCC2)ccc1-c1cc2nccc(-c3ccc(OC4CCOCC4)c(C#N)c3)c2o1 [Compound 477, N-(2-Azetidin-1-yl-ethyl)-4-{7-[3-cyano-4-(tetrahydro-pyran-4-yloxy)-phenyl]-furo[3,2-b]pyridin-2-yl}-3-methoxy-benzamide]
IC50 (TBK1): < 100 nM | IC50 (IKKε): < 100 nM | IC50 [1, 2]: 100 to 1000 nM

COc1cc(C(=O)N2CCCCN2C)ccc1-c1cc2nccc(-c3ccc(OC4CCOCC4)c(C#N)c3)c2o1 [Compound 478, 5-{2-[2-Methoxy-4-(2-methyl-tetrahydro-pyridazine-1-carbonyl)-phenyl]-furo[3,2-b]pyridin-7-yl}-2-(tetrahydro-pyran-4-yloxy)-benzonitrile]
IC50 (TBK1): < 100 nM | IC50 (IKKε): < 100 nM | IC50 [1, 2]: 100 to 1000 nM

CCC(CO)(CO)NC(=O)c1ccc(-c2cc3nccc(-c4ccc(OC5CCOCC5)c(C#N)c4)c3o2)c(OC)c1 [Compound 479, N-(1,1-Bis-hydroxymethyl-propyl)-4-{7-[3-cyano-4-(tetrahydro-pyran-4-yloxy)-phenyl]-furo[3,2-b]pyridin-2-yl}-3-methoxy-benzamide]
IC50 (TBK1): < 100 nM | IC50 (IKKε): < 100 nM | IC50 [1, 2]: 100 to 1000 nM

COc1cc(C(=O)N(C)C(C)(C)CO)ccc1-c1cc2nccc(-c3ccc(OC4CCOCC4)c(C#N)c3)c2o1 [Compound 480, 4-{7-[3-Cyano-4-(tetrahydro-pyran-4-yloxy)-phenyl]-furo[3,2-b]pyridin-2-yl}-N-(2-hydroxy-1,1-dimethyl-ethyl)-3-methoxy-N-methyl-benzamide]
IC50 (TBK1): < 100 nM | IC50 (IKKε): < 100 nM | IC50 [1, 2]: 100 to 1000 nM

COc1cc(C(=O)N(C)C(C)(C)C)ccc1-c1cc2nccc(-c3ccc(OC4CCOCC4)c(C#N)c3)c2o1 [Compound 481, N-tert-Butyl-4-{7-[3-cyano-4-(tetrahydro-pyran-4-yloxy)-phenyl]-furo[3,2-b]pyridin-2-yl}-3-methoxy-N-methyl-benzamide]
IC50 (TBK1): < 100 nM | IC50 (IKKε): < 100 nM | IC50 [1, 2]: 100 to 1000 nM

COc1cc(C(=O)N2CCCCN2)ccc1-c1cc2nccc(-c3ccc(OC4CCOCC4)c(C#N)c3)c2o1 [Compound 482, 5-{2-[2-Methoxy-4-(tetrahydro-pyridazine-1-carbonyl)-phenyl]-furo[3,2-b]pyridin-7-yl}-2-(tetrahydro-pyran-4-yloxy)-benzonitrile]
IC50 (TBK1): < 100 nM | IC50 (IKKε): < 100 nM | IC50 [1, 2]: 100 to 1000 nM

COc1cc(C(=O)N(C)CCS(C)(=O)=O)ccc1-c1cc2nccc(-c3ccc(OC4CCOCC4)c(C#N)c3)c2o1 [Compound 483, 4-{7-[3-Cyano-4-(tetrahydro-pyran-4-yloxy)-phenyl]-furo[3,2-b]pyridin-2-yl}-N-(2-methanesulfonyl-ethyl)-3-methoxy-N-methyl-benzamide]
IC50 (TBK1): < 100 nM | IC50 (IKKε): < 100 nM | IC50 [1, 2]: < 100 nM

COc1cc(C(=O)N(C)C)ccc1-c1cc2nccc(-c3ccc(OC4CN(C)C4)c(C#N)c3)c2o1 [Compound 484, 4-{7-[3-Cyano-4-(1-methyl-azetidin-3-yloxy)-phenyl]-furo[3,2-b]pyridin-2-yl}-3-methoxy-N,N-dimethyl-benzamide]
IC50 (TBK1): < 100 nM | IC50 (IKKε): < 100 nM | IC50 [1, 2]: < 100 nM

COc1cc(C(=O)N(C)C)ccc1-c1cc2nccc(-c3ccc(OC4CN(C(C)C)C4)c(C#N)c3)c2o1 [Compound 485, 4-{7-[3-Cyano-4-(1-isopropyl-azetidin-3-yloxy)-phenyl]-furo[3,2-b]pyridin-2-yl}-3-methoxy-N,N-dimethyl-benzamide]
IC50 (TBK1): 1000 to 5000 nM | IC50 (IKKε): 1000 to 5000 nM | IC50 [1, 2]: 1000 to 5000 nM
